Data from US7943774B2 (priority 2008, dated 2011).

Test: log P (pH2.3)
Assay type: physicochemical
[1] = method [b]: LC-MS, acidic range, pH 2.7, 0.1% aqueous formic acid and acetonitrile
[2] = method [c]: LC-MS, neutral range, pH 7.8, 0.001 molar aqueous ammonium bicarbonate and acetonitrile
[3] = method [b]: LC-MS, acidic range, pH 2.7, 0.1% aqueous formic acid and acetonitrile, HPLC on reversed-phase C 18
[4] = method [c]: LC-MS, neutral range, pH 7.8, 0.001 molar aqueous ammonium bicarbonate solution and acetonitrile, HPLC on reversed-phase C 18

SMILES	log p [1]	log p [3]	also measured
Cc1cc(C(F)(F)F)nn1CC(=O)N1CCC(c2nc(C#Cc3ccccc3Cl)cs2)CC1 [Example I-101]	4.12^[b]		
Cc1cc(C(F)(F)F)nn1CC(=O)N1CCC(c2nc(C#Cc3ccc(Cl)cc3)cs2)CC1 [Example I-102]	4.37^[b]		
COc1ccc(C#Cc2csc(C3CCN(C(=O)Cn4nc(C(F)(F)F)cc4C)CC3)n2)c(OC)c1 [Example I-104]	3.67^[b]		
Cc1cc(C(F)(F)F)nn1CC(=O)N1CCC(c2nc(C#Cc3ccc(Cl)cc3Cl)cs2)CC1 [Example I-105]	4.72^[b]		
COc1ccc(OC)c(C#Cc2csc(C3CCN(C(=O)Cn4nc(C(F)(F)F)cc4C)CC3)n2)c1 [Example I-106]	3.65^[b]		
CCc1cc(CC)n(CC(=O)N2CCC(c3nc(CCc4cccc5ccccc45)cs3)CC2)n1 [Example I-107]	4.04^[b]		
CCc1cc(C(F)(F)F)nn1CC(=O)N1CCC(c2nc(CCc3cccc4ccccc34)cs2)CC1 [Example I-108]	4.65^[b]		
O=C(Cn1nc(C(F)F)cc1C(F)F)N1CCC(c2nc(CCc3cccc4ccccc34)cs2)CC1 [Example I-109]	4.25^[b]		
CC(C)(C)c1cc(C(F)(F)F)n(CC(=O)N2CCC(c3nc(CCc4cccc5ccccc45)cs3)CC2)n1 [Example I-110]	5.36^[b]		
CC(C)(C)c1cc(C(F)(F)F)nn1CC(=O)N1CCC(c2nc(CCc3cccc4ccccc34)cs2)CC1 [Example I-111]	5.14^[b]		
CC(C)(C)c1cc(C(F)(F)C(F)(F)F)n(CC(=O)N2CCC(c3nc(CCc4cccc5ccccc45)cs3)CC2)n1 [Example I-112]	5.78^[b]		
CC(C)(C)c1cc(C(F)(F)C(F)(F)F)nn1CC(=O)N1CCC(c2nc(CCc3cccc4ccccc34)cs2)CC1 [Example I-113]	5.54^[b]		
O=C(Cn1nc(C(F)(F)F)cc1C(F)(F)F)N1CCC(c2nc(C#Cc3cccc4ccccc34)cs2)CC1 [Example I-114]	5.03^[b]		
CCc1cc(CC)n(CC(=O)N2CCC(c3nc(C#Cc4cccc5ccccc45)cs3)CC2)n1 [Example I-115]	4.2^[b]		
CCc1cc(C(F)(F)F)nn1CC(=O)N1CCC(c2nc(C#Cc3cccc4ccccc34)cs2)CC1 [Example I-116]	4.8^[b]		
O=C(Cn1nc(C(F)F)cc1C(F)F)N1CCC(c2nc(C#Cc3cccc4ccccc34)cs2)CC1 [Example I-117]	4.41^[b]		
CC(C)(C)c1cc(C(F)(F)F)n(CC(=O)N2CCC(c3nc(C#Cc4cccc5ccccc45)cs3)CC2)n1 [Example I-118]	5.48^[b]		
CC(C)(C)c1cc(C(F)(F)F)nn1CC(=O)N1CCC(c2nc(C#Cc3cccc4ccccc34)cs2)CC1 [Example I-119]	5.14^[b]		
CC(C)(C)c1cc(C(F)(F)C(F)(F)F)nn1CC(=O)N1CCC(c2nc(C#Cc3cccc4ccccc34)cs2)CC1 [Example I-120]	5.59^[b]		
CC(C)c1cc(C(F)(F)F)n(CC(=O)N2CCC(c3nc(CCc4cccc5ccccc45)cs3)CC2)n1 [Example I-121]	4.89^[b]		
CC(C)c1cc(C(F)(F)F)n(CC(=O)N2CCC(c3nc(C#Cc4cccc5ccccc45)cs3)CC2)n1 [Example I-122]	4.99^[b]		
Cc1cc(C(F)(F)F)nn1CC(=O)N1CCC(c2nc(CCc3ccc(Cl)cc3Cl)cs2)CC1 [Example I-123]	4.74^[b]		log p [2]: 4.77^[c];
O=C(Cc1cc(Br)ccc1Br)N1CCC(c2nc(C#Cc3cccc4ccccc34)cs2)CC1 [Example I-124]	5.47^[b]		log p [2]: 5.52^[c];
C#Cc1csc(C2CCN(C(=O)Cc3cc(Cl)ccc3Cl)CC2)n1 [Example I-125]	3.08^[b]		

SMILES	log p [1]	log p [3]	also measured
Cc1ccccc1CCc1csc(C2CCN(C(=O)Cn3nc(C(F)(F)F)cc3C)CC2)n1 [Example I-126]	4.08^[b]		log p [2]: 4.16^[c];
Cc1cc(C(F)(F)F)nn1CC(=O)N1CCC(c2nc(CCc3c(F)cccc3F)cs2)CC1 [Example I-128]	3.9^[b]		log p [2]: 3.97^[c],
Cc1cc(C(F)(F)F)nn1CC(=O)N1CCC(c2nc(CCC3CCCCC3)cs2)CC1 [Example I-132]	5.01^[b]		
Cc1cc(C(F)(F)F)nn1CC(=O)N1CCC(c2nc(CCC3CCCc4ccccc43)cs2)CC1 (stereo not shown) [Example I-133]	4.95^[b]		
O=C(Cn1nc(C(F)(F)F)cc1C(F)(F)F)N1CCC(c2nc(CCC3CCCCC3)cs2)CC1 [Example I-140]		5.76^[b]	
O=C(Cn1nc(C(F)F)cc1C(F)F)N1CCC(c2nc(CCC3CCCCC3)cs2)CC1 [Example I-148]		4.87^[b]	
O=C(Cn1nc(C(F)F)cc1C(F)F)N1CCC(c2nc(CCC3CCCc4ccccc43)cs2)CC1 (stereo not shown) [Example I-149]		4.78^[b]	
Cc1ccc(C)c(CC(=O)N2CCC(c3nc(CCc4ccccc4C)cs3)CC2)c1 [Example I-158]		4.67^[b]	log p [4]: 4.77^[c];
Cc1ccc(C)c(CC(=O)N2CCC(c3nc(CCc4c(F)cccc4F)cs3)CC2)c1 [Example I-160]		4.48^[b]	log p [4]: 4.55^[c];
Cc1ccccc1C#Cc1csc(C2CCN(C(=O)Cn3nc(C(F)(F)F)cc3C)CC2)n1 [Example I-206]		4.15^[b]	log p [4]: 4.15^[c];
Cc1cc(C(F)(F)F)nn1CC(=O)N1CCC(c2nc(C#Cc3ccccc3Br)cs2)CC1 [Example I-207]		4.16^[b]	log p [4]: 4.19^[c];
Cc1cc(C(F)(F)F)nn1CC(=O)N1CCC(c2nc(C#Cc3c(F)cccc3F)cs2)CC1 [Example I-208]		3.83^[b]	log p [4]: 3.86^[c];
Cc1cccnc1C#Cc1csc(C2CCN(C(=O)Cn3nc(C(F)(F)F)cc3C)CC2)n1 [Example I-210]		2.72^[b]	log p [4]: 2.95^[c];
Cc1ccccc1C#Cc1csc(C2CCN(C(=O)Cn3nc(C(F)(F)F)cc3C(F)(F)F)CC2)n1 [Example I-212]		4.73^[b]	
O=C(Cn1nc(C(F)(F)F)cc1C(F)(F)F)N1CCC(c2nc(C#Cc3ccccc3Br)cs2)CC1 [Example I-213]		4.74^[b]	
O=C(Cn1nc(C(F)(F)F)cc1C(F)(F)F)N1CCC(c2nc(C#Cc3c(F)cccc3F)cs2)CC1 [Example I-214]		4.4^[b]	
Cc1cccnc1C#Cc1csc(C2CCN(C(=O)Cn3nc(C(F)(F)F)cc3C(F)(F)F)CC2)n1 [Example I-216]		3.37^[b]	
Cc1ccccc1C#Cc1csc(C2CCN(C(=O)Cn3nc(C(F)F)cc3C(F)F)CC2)n1 [Example I-218]		3.99^[b]	log p [4]: 4.02^[c];
O=C(Cn1nc(C(F)F)cc1C(F)F)N1CCC(c2nc(C#Cc3ccccc3Br)cs2)CC1 [Example I-219]		4.04^[b]	log p [4]: 4.04^[c];
O=C(Cn1nc(C(F)F)cc1C(F)F)N1CCC(c2nc(C#Cc3c(F)cccc3F)cs2)CC1 [Example I-220]		3.7^[b]	log p [4]: 3.73^[c];
Cc1cccnc1C#Cc1csc(C2CCN(C(=O)Cn3nc(C(F)F)cc3C(F)F)CC2)n1 [Example I-222]		2.68^[b]	log p [4]: 2.86^[c];
Cc1noc(C)c1C#Cc1csc(C2CCN(C(=O)Cn3nc(C(F)F)cc3C(F)F)CC2)n1 [Example I-223]		3.09^[b]	
Cc1ccccc1C#Cc1csc(C2CCN(C(=O)Cc3cc(Cl)ccc3Cl)CC2)n1 [Example I-224]		4.91^[b]	
